Literature values in patent US6825231B2, “Substituted norbornylamino derivatives, processes for their preparation, their use as medicaments or diagnostics, and a medicament comprising them” (Aventis Pharma Deutschland GmbH, priority 1999, dated 2004).

Biological target: NHE3 (Oryctolagus cuniculus, UniProt P26432)
Details: literature: Donowitz et al. Am. J. Physiol. 276: C136-C144; cited from earlier work

Chain of NHE3 (P26432 30-832): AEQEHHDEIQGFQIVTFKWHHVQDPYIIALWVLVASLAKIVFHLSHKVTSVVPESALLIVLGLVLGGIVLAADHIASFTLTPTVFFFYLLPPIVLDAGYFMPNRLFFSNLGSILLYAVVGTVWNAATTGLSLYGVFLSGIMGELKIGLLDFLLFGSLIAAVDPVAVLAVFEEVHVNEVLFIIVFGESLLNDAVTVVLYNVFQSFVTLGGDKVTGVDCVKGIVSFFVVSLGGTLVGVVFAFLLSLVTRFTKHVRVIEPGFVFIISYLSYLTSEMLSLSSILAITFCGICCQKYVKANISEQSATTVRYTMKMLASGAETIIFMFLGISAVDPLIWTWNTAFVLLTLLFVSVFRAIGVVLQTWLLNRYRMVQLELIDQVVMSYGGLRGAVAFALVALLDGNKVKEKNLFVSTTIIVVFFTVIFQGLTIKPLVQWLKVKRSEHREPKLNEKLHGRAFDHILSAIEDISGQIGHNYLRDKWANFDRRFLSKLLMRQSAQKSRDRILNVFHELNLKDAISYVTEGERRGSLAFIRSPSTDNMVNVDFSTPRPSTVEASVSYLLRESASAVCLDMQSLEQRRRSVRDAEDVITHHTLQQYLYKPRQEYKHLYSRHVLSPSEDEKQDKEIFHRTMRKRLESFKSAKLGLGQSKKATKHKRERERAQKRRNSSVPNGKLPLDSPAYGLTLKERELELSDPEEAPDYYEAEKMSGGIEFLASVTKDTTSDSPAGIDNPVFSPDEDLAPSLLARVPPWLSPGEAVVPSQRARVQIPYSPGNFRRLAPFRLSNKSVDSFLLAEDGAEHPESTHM

For `CC(C)[C@@H](CC[C@@H](C)[C@H]1CC[C@H]2[C@@H]3[C@H](O)C[C@H]4C[C@@H](NCCCNCCCCN)CC[C@]4(C)[C@H]3CC[C@]12C)OS(=O)(=O)O` [squalamine], the “delay of NHE3 inhibitory activity” value is listed as “activity seen after one hour”.
